The source of these data is publication PMC9481570, “A small molecule antagonist of SMN disrupts the interaction between SMN and RNAP II” (Nature Communications, 2022).

One assay concerns the target T1, SMN-POLR2A interaction (Homo sapiens, UniProt Q16637).
T1 construct: endogenous in cells; host or cells: HEK293
The assay is described as follows: Coimmunoprecipitation of POLR2A with SMN in HEK293 cells. The following applies: 72 h; for inhibition of the interaction between SMN and POLR2A: 20 µM; for coimmunoprecipitation of POLR2A with SMN: series of concentrations. Type of assay: cell-based. As for the experimental part:
(§1) HEK293 cells (ATCC, CRL-1573) were grown in DMEM (SLRI media facility) plus 10% FBS (Sigma, F1051). For analysis of SMN chemical antagonists, HEK293 cells were treated with DMSO or a series of concentrations (0, 2, 6, 10, 20, 30, 40, and 80 μM) of compound 1, compound 2 or negative compound 15 for 72 h. CRISPR-mediated SMN1 gene knockout was performed according to our previous study. Briefly, 2 μg of CRISPR/Cas9 plasmid (pCMV-Cas9-GFP), which expresses scrambled guide RNA, or guide RNA that targets the SMN1 gene exon1 (gRNA target sequence: […]) or exon3 (gRNA target sequence: […]) was transfected into HEK293 cells. Cells were sorted by BD FACSAria flow cytometry at Donnelly Center, University of Toronto 24 h after transfection, and single GFP-positive cells were seeded into a 48-well plate. The expression levels of SMN in each clone were detected by immunofluorescence. The transfection of GFP-RNase H1 R-loop-binding domain (GFP-HB) for R-loop detection into HEK293 cells was performed with the FuGENE Transfection reagent (Roche, E269A).
The experiments were performed following procedure as previously described with minor modifications. […] The supernatant cell lysates were sonicated with five on and off cycles of 0.3 s/0.7 s per mL and incubated for 30 min at 4 °C with 12.5–25 units/mL benzonase nuclease (Sigma, E1014) to remove RNA and DNA, followed by centrifugation at 18,400 × g for 30 min at 4 °C. The supernatant cell lysates were incubated with 2 μg of antibody overnight at 4 °C, followed by the addition of 20 μL of Dynabeads Protein G beads (Invitrogen, 10004D) for an additional incubation for 4 h. After washing with low-salt buffer (10 mM Tris-HCl, pH 7.9, 100 mM NaCl, and 0.1% Nonidet P-40) 3 times, 10 min/time, associated proteins were eluted into protein-loading buffer and separated by Tris 4–20% SDS-polyacrylamide (Mini-PROTEAN TGX Precast Protein Gel, BioRad, 4561096), and transferred to nitrocellulose or PVDF membranes (Immu-Blot PVDF, BioRad, 1620112 or 1620177). Transferred samples were immunoblotted with primary antibodies (POLR2A, Abcam, ab5408, monoclonal antibody, clone No. 4H8; SMN, Santa Cruz Biotechnology, sc-15320, polyclonal antibody; ACTB, Sigma, A5441, monoclonal antibody, clone No. AC-15; GFP, Invitrogen, G10362, rabbit monoclonal antibody; TUBB, Santa Cruz Biotechnology, sc-9104, polyclonal antibody) at a dilution of 1:2000 to 1:5000, followed by horseradish peroxidase-conjugated goat anti-mouse or mouse anti-rabbit secondary antibody (Jackson Immuno Research, 115-035-174 or 211-032-171) at a dilution of 1:10,000. Western blot detection was performed with enhanced chemiluminescence (Pierce ECL Western Blotting Substrate, Thermo Fisher, 32209). […]

In assay [1] the target is T2, SMN-RNAP II (GFP-POLR2D) interaction (Homo sapiens, UniProt Q16637).
T2 construct: endogenous in cells; host or cells: HEK293
As to the kind of experiment: Coimmunoprecipitation of SMN with GFP-POLR2D in HEK293 cells. As to conditions: series of concentrations, 72 h. Type of assay: cell-based. As for the experimental part:
as §1
The experiments were performed following procedure as previously described with minor modifications. […]

The test system of assay [2] is SMN occupancy at ACTB gene. The assay is described as follows: SMN ChIP-qPCR along the ACTB gene. As to conditions: 72 h; for SMN/RNAPII, ACTB position 332 / SMN/RNAPII, ACTB position 1671 / SMN/RNAPII, ACTB position 2911 / SMN/RNAPII, ACTB position 3752 / SMN/RNAPII, ACTB position 4657 / SMN/RNAPII, ACTB position 5590 / SMN/RNAPII, ACTB position -72: HEK293, 20 μM, ChIP-qPCR, DMSO = 1; for occupancy levels of SMN along the ACTB gene: HEK293 cells, 20 µM. Type of assay: cell-based, human. As for the experimental part: ChIP was performed using the EZ-ChIP™ A - Chromatin Immunoprecipitation Kit (Millipore, 17-371) according to the manufacturer’s instruction. Antibodies were used with a range of 1–2 μg, and IgG (Millipore, polyclonal antibody, 12-370) was used as a background control. After immunoprecipitation, genomic DNA was de-crosslinked in ChIP elution buffer containing 5 M NaCl at 65 °C overnight and purified with the Qiaex II kit (Qiagen, 20021), and eluted in water for PCR amplification. Immunoprecipitated and input DNAs were used as templates for qPCR. The qPCR primer sequences for ACTB gene are the same as described earlier[9] and shown in the Supplementary Table 2. For analysis of SMN chemical antagonists, HEK293 cells were treated with DMSO, compound 1 or compound 2 (a final concentration of 20 μM) for 72 h, before processing for ChIP.

The structures appear in SMILES notation.

T1 sequence (Q16637 2-294 limits assumed): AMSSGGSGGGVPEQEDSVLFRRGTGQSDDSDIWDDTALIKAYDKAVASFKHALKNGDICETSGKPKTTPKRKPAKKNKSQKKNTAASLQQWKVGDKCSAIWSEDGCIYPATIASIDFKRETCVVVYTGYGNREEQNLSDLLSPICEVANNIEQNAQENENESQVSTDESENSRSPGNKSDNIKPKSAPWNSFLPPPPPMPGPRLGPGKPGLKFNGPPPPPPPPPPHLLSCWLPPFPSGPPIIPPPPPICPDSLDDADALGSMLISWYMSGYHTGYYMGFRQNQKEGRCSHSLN
T2 sequence (Q16637 2-294 limits assumed): as above

As for `Cn1c2c(c(=N)c3c1CCC3)CCC2` [Compound 1, 4-methyl-2,3,4,5,6,7-hexahydrodicyclopenta[b,e]pyridin-8(1H)-imine], at SMN-POLR2A interaction, the “inhibition of the interaction between SMN and POLR2A” value is “significant inhibition”; the “coimmunoprecipitation of POLR2A with SMN” value is recorded as “disrupted”. Further, the “coimmunoprecipitation of SMN with GFP fusion protein of POLR2D” value in assay [1] was “inhibited”. In addition, in assay [2], the “SMN/RNAPII, ACTB position 332” value is 0.6623; the “SMN/RNAPII, ACTB position 1671” value stood at 0.139; the “SMN/RNAPII, ACTB position 2911” value stood at 0.1085; the “SMN/RNAPII, ACTB position 3752” value was determined as 0.1464. Further, in assay [2], the “SMN/RNAPII, ACTB position 4657” value stood at 0.1588; the “SMN/RNAPII, ACTB position 5590” value worked out at 0.03323; the “SMN/RNAPII, ACTB position -72” value came to 0.2631; the “occupancy levels of SMN along the ACTB gene” value is reported as “significantly reduced”.
Consider `CCCn1c2c(c(=N)c3c1CCC3)CCC2` [Compound 2, 4-propyl-2,3,4,5,6,7-hexahydrodicyclopenta[b,e]pyridin-8(1H)-imine], for which, on SMN-POLR2A interaction, the “inhibition of the interaction between SMN and POLR2A” value is “significant inhibition”; the “coimmunoprecipitation of POLR2A with SMN” value was “disrupted”. The “coimmunoprecipitation of SMN with GFP fusion protein of POLR2D” value in assay [1] is recorded as “inhibited”. In assay [2], the “SMN/RNAPII, ACTB position 332” value came to 0.5015; the “SMN/RNAPII, ACTB position 1671” value is 0.45; the “SMN/RNAPII, ACTB position 2911” value is listed as 0.3355; the “SMN/RNAPII, ACTB position 3752” value is given as 0.2279. Further, in assay [2], the “SMN/RNAPII, ACTB position 4657” value was found to be 0.35; the “SMN/RNAPII, ACTB position 5590” value was 0.2022; the “SMN/RNAPII, ACTB position -72” value stood at 0.3107; the “occupancy levels of SMN along the ACTB gene” value was “significantly reduced”.
